For the assay, the target named is T1, Recombinant human Ku heterodimer (Homo sapiens, UniProt P12956+P13010).
T1 construct: made in house; host or cells: insect cells infected with recombinant baculovirus
Nature of the assay: Ku-DNA binding assay. The text has this: Ku is a DNA end-binding protein that is essential for the repair of DNA double strand breaks via the NHEJ pathway. The mechanism of DNA binding by Ku is via a toroid structure that encircles double-stranded DNA from a terminus.

Setting [1] is: Table 2, synthesized derivatives, several values in a cell = separate determinations, read-out: IC50.
Setting [2] is: IC50 (concentration that inhibits 50% of the binding activity), titration into Ku-DNA binding reactions (FIG. 1, FIG. 2).
Where [3] appears, read: Table 1, purchased second generation inhibitors, several values in a cell = separate determinations, read-out: IC50.

Several values for one entry are separate records, joined by “and”; a condition that tells them apart may be missing. Equal entries are not always repeated. Where two headings read alike, the source gives them in different places.

T1 sequence (P12956 whole entry): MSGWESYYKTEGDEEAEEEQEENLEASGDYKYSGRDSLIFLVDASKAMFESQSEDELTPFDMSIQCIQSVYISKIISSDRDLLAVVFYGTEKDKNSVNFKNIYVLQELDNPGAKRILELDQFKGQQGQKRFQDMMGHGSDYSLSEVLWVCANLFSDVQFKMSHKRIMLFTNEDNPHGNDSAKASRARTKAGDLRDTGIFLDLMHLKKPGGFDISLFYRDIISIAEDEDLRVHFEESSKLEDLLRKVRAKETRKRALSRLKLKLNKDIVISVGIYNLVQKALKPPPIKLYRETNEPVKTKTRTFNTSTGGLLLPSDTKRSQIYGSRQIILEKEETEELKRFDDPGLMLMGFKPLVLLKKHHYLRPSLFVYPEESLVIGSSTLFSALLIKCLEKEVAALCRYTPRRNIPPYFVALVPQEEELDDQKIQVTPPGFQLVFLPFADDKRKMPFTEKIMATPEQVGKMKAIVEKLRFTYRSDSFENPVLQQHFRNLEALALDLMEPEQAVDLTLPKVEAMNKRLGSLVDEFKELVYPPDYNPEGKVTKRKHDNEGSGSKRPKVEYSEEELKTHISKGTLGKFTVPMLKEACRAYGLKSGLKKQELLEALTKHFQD
T1 sequence (P13010 whole entry): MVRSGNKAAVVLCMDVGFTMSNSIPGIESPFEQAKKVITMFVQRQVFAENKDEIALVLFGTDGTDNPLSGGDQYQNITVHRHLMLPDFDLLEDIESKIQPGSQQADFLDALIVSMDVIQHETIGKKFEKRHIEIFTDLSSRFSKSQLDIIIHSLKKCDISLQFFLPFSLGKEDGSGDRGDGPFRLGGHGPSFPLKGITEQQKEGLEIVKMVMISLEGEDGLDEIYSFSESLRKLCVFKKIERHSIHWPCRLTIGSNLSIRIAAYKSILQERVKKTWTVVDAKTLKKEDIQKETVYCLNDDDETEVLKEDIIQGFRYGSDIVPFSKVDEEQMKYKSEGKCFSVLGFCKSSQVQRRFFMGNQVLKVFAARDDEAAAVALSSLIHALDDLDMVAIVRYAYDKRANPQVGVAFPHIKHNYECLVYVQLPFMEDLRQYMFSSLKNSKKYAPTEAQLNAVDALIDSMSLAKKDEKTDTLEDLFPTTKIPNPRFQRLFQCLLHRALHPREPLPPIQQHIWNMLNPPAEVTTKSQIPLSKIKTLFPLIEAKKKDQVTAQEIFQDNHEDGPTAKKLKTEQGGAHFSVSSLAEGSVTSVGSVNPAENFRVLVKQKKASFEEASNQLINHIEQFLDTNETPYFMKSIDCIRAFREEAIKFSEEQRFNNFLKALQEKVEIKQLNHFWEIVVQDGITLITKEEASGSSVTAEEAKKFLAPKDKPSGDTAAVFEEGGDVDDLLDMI

`CC1=NN(c2cccc(C(=O)O)c2)C(=O)C1Cc1ccc(-c2ccc(Cl)c(C(=O)NCC3CC3)c2)o1` (centres unmarked) [NG-01-72, 3-(4-((5-(4-Chloro-3-((cyclopropylmethyl)carbamoyl)phenyl)furan-2-yl)methyl)-3-methyl-5-oxo-4,5-dihydro-1H-pyrazol-1-yl)benzoic acid]: the IC50 under setting [1] is 10 µM.

Take `COc1cccc(NC(=O)c2cc(-c3ccc(/C=C4\C(=O)N(c5ccc(C(=O)O)cc5)N=C4C)s3)ccc2Cl)c1` [NG-03-236, (Z)-4-(4-((5-(4-Chloro-3-((3-methoxyphenyl)carbamoyl)phenyl)thiophen-2-yl)methylene)-3-methyl-5-oxo-4,5-dihydro-1H-pyrazol-1-yl)benzoic acid]: the IC50 under setting [1] amounted to 10 µM. For the compound `CCCCOC(=O)c1cc(-c2ccc(/C=C3\C(=O)N(c4ccc(Cl)c(C(=O)O)c4)N=C3C)o2)ccc1Cl` [compound 0530, reference compound], the IC50 by setting is: under setting [2], ~5 µM; under setting [3], 5.6 µM. As to `CCCOC(=O)c1cc(-c2ccc(/C=C3\C(=O)N(c4cccc(C(=O)O)c4)N=C3C)o2)ccc1Cl` [compound 2727, reference compound], the IC50 under setting [3] was 7.6 µM and 5.7 µM. The same measure, in the same setting: under `CC1=NN(c2cccc(C(=O)O)c2)C(=O)/C1=C\c1ccc(-c2ccc(Cl)c(C(=O)OCc3ccccc3Cl)c2)o1` [compound 2249, reference compound] stands 2.9 µM; under `CC1=NN(c2ccc(Cl)c(C(=O)O)c2)C(=O)/C1=C\c1ccc(-c2ccc3c(c2)C(=O)OC3)o1` [compound 4770, reference compound], 21.8 µM. The same measure, in the same setting: under `CCOC(=O)c1cccc(-c2ccc(/C=C3\C(=O)N(c4cccc(C(=O)O)c4)N=C3C)o2)c1` [compound 2714, reference compound] stands 9.1 µM. For `COc1cccc(NC(=O)c2cc(-c3ccc(/C=C4\C(=O)N(c5cccc(C(=O)O)c5)N=C4C)s3)ccc2Cl)c1` [NG-03-203, (Z)-3-(4-((5-(4-chloro-3-((3-methoxyphenyl)carbamoyl)phenyl)thiophen-2-yl)methylene)-3-methyl-5-oxo-4,5-dihydro-1H-pyrazol-1-yl)benzoic acid], the half-inhibitory concentration (IC50) under setting [1] was 18 µM.

For `CC1=NN(c2cccc(C(=O)O)c2)C(=O)/C1=C\c1ccc(-c2ccc(Cl)c(C(=O)NCC3CC3)c2)o1` [NG-01-70, (Z)-3-(4-((5-(4-Chloro-3-((cyclopropylmethyl)carbamoyl)phenyl)furan-2-yl)methylene)-3-methyl-5-oxo-4,5-dihydro-1H-pyrazol-1-yl)benzoic acid], the half-inhibitory concentration (IC50) under setting [1] was 25 µM and > 50 µM. For the compound `CC1=NN(c2cccc(C(=O)O)c2)C(=O)/C1=C\c1ccc(-c2cccc(C(=O)O)c2)o1` [compound 0803, reference compound], the IC50 under setting [3] came out at 65 µM. As to `COc1cccc(NC(=O)c2cc(-c3ccc(CC4C(=O)N(c5ccc(C(=O)O)cc5)N=C4C)s3)ccc2Cl)c1` (centres unmarked) [NG-03-238, 4-(4-((5-(4-Chloro-3-((3-methoxyphenyl)carbamoyl)phenyl)thiophen-2-yl)methyl)-3-methyl-5-oxo-4,5-dihydro-1H-pyrazol-1-yl)benzoic acid], under setting [1], the IC50 turned out to be 14 µM.

Turning to `COc1cccc(NC(=O)c2cc(-c3ccc(CC4C(=O)N(c5ccc(C(=O)O)cc5)N=C4C)o3)ccc2Cl)c1` (centres unmarked) [NG-03-188, 4-(4-((5-(4-Chloro-3-((3-methoxyphenyl)carbamoyl)phenyl)furan-2-yl)methyl)-3-methyl-5-oxo-4,5-dihydro-1H-pyrazol-1-yl)benzoic acid], the IC50 under setting [1] was 12.5 µM and 6 µM.

On to `C#CCOC(=O)c1cccc(-c2ccc(/C=C3\C(=O)N(c4ccc(Cl)c(C(=O)O)c4)N=C3C)o2)c1` [compound 7026, reference compound], for which, under setting [3], the concentration for half-maximal inhibition (IC50) stood at 16.9 µM. In the case of `COc1cccc(NC(=O)c2ccc(CC3C(=O)N(c4cccc(C(=O)O)c4)N=C3C)o2)c1` (centres unmarked) [NG-02-165, 3-(4-((5-((3-Methoxyphenyl)carbamoyl)furan-2-yl)methyl)-3-methyl-5-oxo-4,5-dihydro-1H-pyrazol-1-yl)benzoic acid], the IC50 under setting [1] worked out at 11 µM.

`COc1ccc(NC(=O)c2cc(-c3ccc(CC4C(=O)N(c5cccc(C(=O)O)c5)N=C4C)o3)ccc2Cl)cc1OC` (centres unmarked) [NG-03-206, 3-(4-((5-(4-Chloro-3-((3,4-dimethoxyphenyl)carbamoyl)phenyl)furan-2-yl)methyl)-3-methyl-5-oxo-4,5-dihydro-1H-pyrazol-1-yl)benzoic acid]: the IC50 under setting [1] turned out to be 7.5 µM. On to `COC(=O)c1cccc(-c2ccc(/C=C3\C(=O)N(c4cccc(C(=O)O)c4)N=C3C(F)(F)F)o2)c1` [compound 2777, reference compound], for which the IC50 under setting [3] was 40 µM and 16 µM. For `COc1cccc(NC(=O)c2cc(-c3ccc(/C=C4\C(=O)N(c5cccc(-c6nnn[nH]6)c5)N=C4C)o3)ccc2Cl)c1` [NG-03-201, (Z)-5-(5-((1-(3-(1H-Tetrazol-5-yl)phenyl)-3-methyl-5-oxo-1,5-dihydro-4H-pyrazol-4-ylidene)methyl)furan-2-yl)-2-chloro-N-(3-methoxyphenyl)benzamide], the IC50 under setting [1] is 4.5 µM and 6.5 µM.

As to `CC1=NN(c2cccc(C(=O)O)c2)C(=O)/C1=C\c1ccc(-c2ccc3c(c2)C(=O)OC3)o1` [compound 7997, reference compound], under setting [3], the IC50 was 32 µM and 16 µM and 40 µM.

As to `CCOC(=O)c1cccc(N2N=C(C)/C(=C/c3ccc(-c4ccc(Cl)c(C(=O)Nc5cccc(OC)c5)c4)o3)C2=O)c1` [NG-02-130, (Z)-Ethyl 3-(4-((5-(4-chloro-3-((3-methoxyphenyl)carbamoyl)phenyl)furan-2-yl)methylene)-3-methyl-5-oxo-4,5-dihydro-1H-pyrazol-1-yl)benzoate], the IC50 under setting [1] was determined as 3 µM. On the same count and under the same terms, the figure for `COc1cccc(NC(=O)c2ccc(/C=C3\C(=O)N(c4cccc(C(=O)O)c4)N=C3C)o2)c1` [NG-02-162/ NG-02-162C, (Z)-3-(4-((5-((3-methoxyphenyl)carbamoyl)furan-2-yl)methylene)-3-methyl-5-oxo-4,5-dihydro-1H-pyrazol-1-yl)benzoic acid] is 8 µM and 11 µM.

In the case of `CC1=NN(c2cccc(C(=O)O)c2)C(=O)/C1=C\c1ccc(-c2cccc(C(=O)OC(C)C)c2)o1` [compound 3125, reference compound], the IC50 under setting [3] is 11 µM and 3.5 µM.

On to `CC1=NN(c2cccc(C(=O)O)c2)C(=O)/C1=C\c1ccc(-c2ccc(Cl)c(C(=O)O)c2)s1` [NG-03-224, (Z)-5-(5-((1-(3-Carboxyphenyl)-3-methyl-5-oxo-1,5-dihydro-4H-pyrazol-4-ylidene)methyl)thiophen-2-yl)-2-chlorobenzoic acid], for which the IC50 under setting [1] was 15 µM.

Take “(Z)-2-chloro-5-(54(1-(3-cyanophenyl)-3-methyl-5-oxo-1,5-dihydro-4H-pyrazol-4-ylidene)methyl)furan-2-yl)-N-(3-methoxyphenyl)benzamide [NG-03-193]”: the IC50 under setting [1] came out at 25 µM.

Turning to `CCOC(=O)c1ccc(N2N=C(C)/C(=C/c3ccc(-c4ccc(Cl)c(C(=O)Nc5cccc(OC)c5)c4)s3)C2=O)cc1` [NG-03-235, Ethyl (Z)-4-(4-((5-(4-chloro-3-((3-methoxyphenyl)carbamoyl)phenyl)thiophen-2-yl)methylene)-3-methyl-5-oxo-4,5-dihydro-1H-pyrazol-1-yl)benzoate], the IC50 under setting [1] is 8.75 µM.

Take `COc1cccc(NC(=O)c2cc(-c3ccc(CC4C(=O)N(c5cccc(C(=O)O)c5)N=C4C)s3)ccc2Cl)c1` (centres unmarked) [NG-03-207, 3-(4-((5-(4-chloro-3-((3-Methoxyphenyl)carbamoyl)phenyl)thiophen-2-yl)methyl)-3-methyl-5-oxo-4,5-dihydro-1H-pyrazol-1-yl)benzoic acid]: the IC50 under setting [1] turned out to be 7 µM. Turning to `CC1=NN(c2cccc(C(=O)O)c2)C(=O)C1Cc1ccc(-c2ccc(Cl)c(C(=O)NCc3ccc(F)cc3)c2)o1` (centres unmarked) [NG-01-65, 3-(4-((5-(4-Chloro-3-((4-fluorobenzyl)carbamoyl)phenyl)furan-2-yl)methyl)-3-methyl-5-oxo-4,5-dihydro-1H-pyrazol-1-yl)benzoic acid], the IC50 under setting [1] turned out to be 8 µM. `CC1=NN(c2cccc(C(=O)O)c2)C(=O)/C1=C\c1ccc(-c2cc([N+](=O)[O-])ccc2C)o1` [compound 0302, reference compound]: under setting [3], the IC50 is 13 µM and 7 µM and 9 µM. Same read-out and setting: the figure for `CC1=NN(c2ccc(Cl)c(C(=O)O)c2)C(=O)/C1=C\c1ccc(-c2ccc([N+](=O)[O-])cc2Br)o1` [compound 0277, reference compound] is 21 µM and 19 µM. Turning to `COc1cccc(NC(=O)c2cc(-c3ccc(/C=C4\C(=O)N(c5ccc(S(N)(=O)=O)cc5)N=C4C)o3)ccc2Cl)c1` [NG-03-196, (Z)-2-chloro-N-(3-methoxyphenyl)-5-(5-((3-methyl-5-oxo-1-(4-sulfamoylphenyl)-1,5-dihydro-4H-pyrazol-4-ylidene)methyl)furan-2-yl)benzamide], under setting [1], the IC50 stood at 20 µM. On to `CC1=NN(c2cccc(C(=O)O)c2)C(=O)/C1=C\c1ccc(-c2ccccc2C(=O)O)o1` [compound 0949, reference compound], for which the IC50 under setting [3] is 91 µM. With `C=CCOC(=O)c1cccc(-c2ccc(/C=C3\C(=O)N(c4ccc(Cl)c(C(=O)O)c4)N=C3C)o2)c1` [compound 2922, reference compound], the IC50 under setting [3] was 6.2 µM and 5 µM. Regarding `CC1=NN(c2cccc(C(=O)O)c2)C(=O)/C1=C\c1ccc(-c2ccc(Cl)c(C(=O)O)c2)o1` [X80, (Z)-5-(5-((1-(3-Carboxyphenyl)-3-methyl-5-oxo-1H-pyrazol-4(5H)-ylidene)methyl)furan-2-yl)-2-chlorobenzoic acid], under setting [2], the IC50 was ~75 µM.

For the compound `CC1=NN(c2cccc(C(=O)O)c2)C(=O)/C1=C\c1ccc(-c2ccc(Cl)c(C(=O)NCC3CC3)c2)s1` [NG-03-226, (Z)-3-(4-((5-(4-Chloro-3-((cyclopropylmethyl)carbamoyl)phenyl)thiophen-2-yl)methylene)-3-methyl-5-oxo-4,5-dihydro-1H-pyrazol-1-yl)benzoic acid], under setting [1], the IC50 stood at 7 µM. As for `COc1cc([N+](=O)[O-])ccc1-c1ccc(/C=C2\C(=O)N(c3cccc(C(=O)O)c3)N=C2C)o1` [compound 0814, reference compound], the IC50 under setting [3] was found to be 190 µM.

Values taken from patent publication US11098033B2, “Ku inhibitors and their use” (INDIANA UNIVERSITY RESEARCH AND TECHNOLOGY CORPORATION, priority 2016, dated 2021).
